Our source for the MIC and melting point values is PMC7922224, “Searching for Small Molecules as Antibacterials: Non-Cytotoxic Diarylureas Analogues of Triclocarban” (Antibiotics, 2021).

SMILES strings stand for the structures. ≈ marks a conversion by molar mass, not a printed value.

The first data set concerns S. aureus ATCC 29213. Description: MIC by broth microdilution (CLSI). Type of data set: cell-based, Staphylococcus aureus. As to conditions: Staphylococcus aureus, ATCC29213; Gram-positive; 37 °C, 24 h, Mueller Hinton Broth. The method, then:
(§1) The in vitro Minimum Inhibitory Concentrations (MICs, μg/mL) were determined by the broth microdilution method according to the Clinical Laboratory Standards Institute (CLSI) guidelines. MIC values were recorded as the lowest concentration of compounds at which there was no optically detectable microorganism growth and evaluated by comparing the growth in each well visually with that of the growth in the control well for bacteria. All compounds were dissolved in dimethyl sulfoxide (DMSO) and were tested in a final concentration range of from 512 to 2 µg/mL. MICs for the reference antibiotic norfloxacin against quality control strains were used to confirm the validity of the screen. According to the CLSI guidelines, diphenylureas were tested in vitro against a panel of Gram-positive and Gram-negative bacteria belonging to the ATCC collection using the standard microdilution test for the determination of MICs. MICs of the synthesised compounds along with the parent compound TCC and with the standard antibiotic norfloxacin are listed in Table 1. The compounds were also analyzed in terms of molecular mass, logP (Table 1), number of hydrogen-bond donors and number of hydrogen-bond acceptors, and most of them obeyed Lipinski’s rule. […] Based on our results, it seems that the 3,4-dichloro-disubstitution pattern, which is present in TCC, is not crucial for activity. […] Moreover, the activity against Enterococcus faecalis was interesting. E. faecalis is a ubiquitous member of the healthy human gut microbiota and also a common opportunistic pathogen and leading cause of nosocomial infections. It has a high incidence for most infections, and the case numbers have been increasing in recent decades, likely due to its greater ability to persist in healthcare facilities and its higher abundance in the human gut microbiome. Kim et al. (2016) compared the bactericidal effects of plain and antibacterial soap containing 0.3% TCC. The authors found no significative difference between the effects of plain and medicated soap at either temperature, with the only exception of E. faecalis ATCC 19433 at 40 °C.
(§2) MICs (μg/mL) were determined by the broth microdilution method, using 96-well plates, according to CLSI [26]. Stock solutions of the investigated compounds were obtained by setting the concentration at the maximum possible value. Then, the stock solutions were diluted 1:10 with Mueller Hinton Broth (Oxoid, Italy). Afterwards, twofold serial dilutions in the suitable test medium were carried out to obtain a set of concentrations from 512 to 2 µg/mL in the wells. To obtain the stock solution, DMSO (100%) was employed as diluent. The following bacteria strains, available as freeze-dried discs, belonging to the ATCC collection, were used: Gram-positive: S. aureus ATCC 29213, 6538, and 6538P, E. faecalis ATCC 29212; Gram-negative: K. pneuomoniae ATCC 13883, P. aeruginosa ATCC 27853. To conserve the purity of cultures and to enable their reproducibility, cryovials of all microbial strains in the medium were set up and stored at −80 °C. Pre-cultures of each bacterial strain were prepared in Mueller Hinton Broth (MHB) and incubated at 37 °C for 3–5 h. The turbidity of bacterial cell suspension was calibrated to 0.5 McFarland Standard by the spectrophotometric method (OD 625 nm 0.08–0.10), as indicated in the CLSI protocol M7-A9 and, further, the standardized suspension was diluted (1:100) with MHB to reach 1–2 × 10^6 CFU/mL. All wells were seeded with 100 µl of the mentioned final inoculum, and some wells contained only inoculated broth as control growth. […] The MICs were determined by using the assay repeated twice in triplicate. Throughout the study, norfloxacin was used as reference antibiotic. Appropriate controls involved norfloxacin for bacteria as international reference standard. […]
Compound `Cc1ccccc1NC(=O)Nc1ccccc1` [1fg, 1-(2-Methylphenyl)-3-phenylurea] displayed a minimal inhibitory concentration (MIC) of 256 µg/mL (≈ 1130 µM).

The test system of another data set is S. aureus ATCC 6538P. Description: MIC by broth microdilution (CLSI). Type of data set: cell-based, Staphylococcus aureus. The note with it: Staphylococcus aureus, ATCC6538P; Gram-positive; 37 °C, 24 h, Mueller Hinton Broth. Here is the method: as §1, §2
As to `Cc1ccccc1NC(=O)Nc1ccccc1` [1fg, 1-(2-Methylphenyl)-3-phenylurea], the lowest concentration to inhibit growth (MIC) was 16 µg/mL (≈ 70.7 µM).

For another data set, the system named is S. aureus ATCC 6538. The data set can be described thus: MIC by broth microdilution (CLSI). Type of data set: cell-based, Staphylococcus aureus. As to conditions: Staphylococcus aureus, ATCC6538; Gram-positive; 37 °C, 24 h, Mueller Hinton Broth. Here is the method: as §1, §2
The compound `Cc1ccccc1NC(=O)Nc1ccccc1` [1fg, 1-(2-Methylphenyl)-3-phenylurea] gave a minimal inhibitory concentration (MIC) of 32 µg/mL (≈ 141 µM).

The next data set relates to E. faecalis ATCC 29212. The data set can be described thus: MIC by broth microdilution (CLSI). Format: cell-based, Enterococcus faecalis. The note with it: Enterococcus faecalis, ATCC29212; Gram-positive; 37 °C, 24 h, Mueller Hinton Broth; read-out: MIC E.f. 29212. The method, then: as §1, §2
As for `Cc1ccccc1NC(=O)Nc1ccccc1` [1fg, 1-(2-Methylphenyl)-3-phenylurea], the MIC was determined as 64 µg/mL (≈ 283 µM).

The next data set concerns E. coli 25922. The data set can be described thus: MIC by broth microdilution (CLSI). Type of data set: cell-based. As to conditions: Escherichia coli, Gram-negative, 37 °C, 24 h, Mueller Hinton Broth.
The compound `Cc1ccccc1NC(=O)Nc1ccccc1` [1fg, 1-(2-Methylphenyl)-3-phenylurea] registered an MIC greater than 256 µg/mL.

For a further data set, the system named is K. pneumoniae ATCC 13883. The data set can be described thus: MIC by broth microdilution (CLSI). As to conditions: Klebsiella pneumoniae, ATCC13883; Gram-negative; 37 °C, 24 h, Mueller Hinton Broth; read-out: MIC K.p. 13883. Type of data set: cell-based. Here is the method:
as §1, §2
As to `Cc1ccccc1NC(=O)Nc1ccccc1` [1fg, 1-(2-Methylphenyl)-3-phenylurea], the MIC turned out to be 256 µg/mL (≈ 1130 µM).

The next data set deals with P. aeruginosa ATCC 27853. The data set can be described thus: MIC by broth microdilution (CLSI). The note with it: Pseudomonas aeruginosa, ATCC27853; Gram-negative; 37 °C, 24 h, Mueller Hinton Broth. Format: cell-based. Here is the method: as §1, §2
`Cc1ccccc1NC(=O)Nc1ccccc1` [1fg, 1-(2-Methylphenyl)-3-phenylurea] returned a minimal inhibitory concentration (MIC) greater than 256 µg/mL.

Another data set concerns Staphylococcus aureus. Description: MIC by broth microdilution, S. aureus (strain not given). Format: cell-based. The note with it: strain not specified (best value among the ATCC strains), read-out: MIC against S. aureus. Here is the method: as §1, §2
For the compound `Cc1ccccc1NC(=O)Nc1ccccc1` [1fg, 1-(2-Methylphenyl)-3-phenylurea], the minimum inhibitory concentration (MIC) was 16 µg/mL (≈ 70.7 µM).

Tested on in another data set: not given
Test: not given
Details: not given
Take `Cc1ccccc1NC(=O)Nc1ccccc1` [1fg, 1-(2-Methylphenyl)-3-phenylurea]: the melting point was 241 to 242 °C.
